The values below are quoted from earlier work in US6829374B2, “Methods for measuring iris color over time” (Glaucoma Research, Inc., priority 2001, dated 2004).

This data set deals with iris color. Particulars: ocular medication, recent studies.

In the case of `CC(C)OC(=O)CCC/C=C\C[C@@H]1[C@@H](CC[C@@H](O)CCc2ccccc2)[C@H](O)C[C@@H]1O` [latanoprost], the “change in iris color” value is reported as “change in iris color”.
Take `CCCCCCCC(=O)CC[C@@H]1[C@@H](C/C=C\CCCC(=O)O)[C@@H](O)C[C@H]1O` [unoprostone]: the “change in iris color” value is given as “change in iris color”.
